Assay results: US20240000737A1, “SUBSTANCES FOR TREATMENT OF HYPERURICAEMIA” (SCANDIBIO THERAPEUTICS AB, priority 2020, published 2024)

How the values were obtained:
plasma creatinine = assay: Rat high-fat diet study: plasma creatinine; format: in vivo, Sprague Dawley male rats; conditions: HFD rats, once daily oral gavage in weeks four and five, fold change relative to group 3 (HFD reference), * = P < 0.05
Procedure: (§1) The Ethics Committee of Atatürk University approved all experimental protocols about animal care, handling and experimentation. All experiments were performed in accordance with relevant guidelines and regulations. 44 Sprague Dawley male rats (10-12 weeks old) weighing 375-415 g were obtained from Atatürk University Experimental Research Center (ATADEM) and housed at 22±2° C. with 50±5% humidity on a 12 hr light/dark cycle.
(§2) Chow diet (CD) and a high-fat diet (HFD) were used to fed the animals in this study. The CD was composed of wheat, wheat bran, rice polishing and fish meal, with approximately 25% proteins, 60% carbohydrates and 15% fat in terms of the caloric content. On the other hand, HFD was composed of normal food, beef tallow, sugar and condensed milk and contained approximately 14% proteins, 37% carbohydrates and 49% fat in terms of the caloric content.
(§3) Following 1-week habituation, the rats were separated into two groups: a control group (Group 1, n=4), which was fed with a regular CD; and the HFD group (n=40), which was fed with HFD. After three weeks, four rats in the HFD group (Group 2) were randomly sacrificed and the remaining 36 rats in the HFD group were randomly divided into nine sub-groups (Groups 3-11, four rats in each subgroup).
(§4) Groups 3-11 received the following treatments during weeks four and five: • Group 3 received only the HFD (reference) • Group 4 received the HFD and Serine (1000 mg/kg once daily by oral gavage) • Group 5 received the HFD and NAC (300 mg/kg once daily by oral gavage) • Group 6 received the HFD and L-Carnitine tartrate (LCAT) (100 mg/kg once daily by oral gavage) • Group 7 received the HFD and Nicotinamide riboside chloride (NRCl) (120 mg/kg once daily by oral gavage) • Group 8 received the HFD and Nicotinamide (NA) (120 mg/kg once daily by oral gavage) • Group 9 received the HFD, Serine (1000 mg/kg once daily by oral gavage), NAC (300 mg/kg once daily by oral gavage) and LCAT (100 mg/kg once daily by oral gavage) • Group 10 received the HFD, Serine (1000 mg/kg once daily by oral gavage), NAC (300 mg/kg once daily by oral gavage), LCAT (100 mg/kg/day) and NRCl (120 mg/kg once daily by oral gavage) • Group 11 received the HFD, Serine (1000 mg/kg once daily by oral gavage), NAC (300 mg/kg once daily by oral gavage), LCAT (100 mg/kg once daily by oral gavage) and NA (120 mg/kg once daily by oral gavage)
(§5) The body weight and food intake of the rats was recorded each week. After week five, all animals of groups 3-11 were anesthetized with isoflurane and sacrificed. Blood samples were collected from the abdominal aorta and centrifuged at 8000 rpm for 15 min at 4° C. The plasma was separated and stored at −80° C. until further analysis.
(§6) Plasma samples were thawed and analyzed for creatinine and uric acid.

plasma uric acid = assay: Rat high-fat diet study: plasma uric acid; format: in vivo, Sprague Dawley male rats; conditions: HFD rats, once daily oral gavage in weeks four and five, fold change relative to group 3 (HFD reference), * = P < 0.05
Procedure: as §1, §2, §3, §4, §5, §6

| SMILES | Creatinine Fold change (plasma creatinine) | Uric Acid Fold change (plasma uric acid) |
| --- | --- | --- |
| CC(=O)N[C@@H](CS)C(=O)O [NAC, N-acetyl cysteine] | 0.85 | 0.76 |
| NC(=O)c1ccc[n+]([C@@H]2O[C@H](CO)[C@@H](O)[C@H]2O)c1.[Cl-] [NRCl, Nicotinamide riboside chloride] | 0.83* | 0.64* |
| C[N+](C)(C)C[C@H](O)CC(=O)[O-].O=C(O)C(O)C(O)C(=O)O [LCAT, L-Carnitine tartrate] | 0.89 | 0.62* |
| NC(=O)c1cccnc1 [NA, Nicotinamide] | 0.96 | 0.53* |
| N[C@@H](CO)C(=O)O [Serine] | 0.84* | 0.72* |
